system: H1650 lung cancer cells; assay: Cell viability assay (MTT, IC50 determination); type: cell-based; details: 48 hours after drug treatment, MTT
Protocol: 89(22): p. […] H1650 lung cancer cells were plated at 150,000 cells per well in a 12 well plate. Twenty-four hours after plating, cells were treated as described with increasing concentrations of drug and control. Forty-eight hours after drug treatment, cells were treated with 100 μL of 3-(4,5-Dimethylthiazol-2-yl)-2,5-diphenyltetrazolium bromide (MTT) and incubated for 2 hours at 37 C. The MTT solution was subsequently replaced with 300 μL of n-propyl alcohol and re-aliquoted to a 96 well plates. Spectrophotometric analysis of each solution was performed using a 96 well plate reader at 600 nm in triplicate.

| IC50 [µM] | IC50 (Cell Viability Data) | SMILES |
| --- | --- | --- |
| 30 |  | COC(=O)NCCCN1c2ccccc2CCc2ccc(Cl)cc21 [Example 9, Methyl (3-(3-chloro-10,11-dihydro-5H-dibenzo[b,f]azepin-5-yl)propyl)carbamate] |
|  | INACTIVE | COc1ccc(S(=O)(=O)NCCCN2c3ccccc3Sc3ccc(Cl)cc32)cc1 [Example 11, N-(3-(2-chloro-10H-phenothiazin-10-yl)propyl)-4-methoxybenzenesulfonamide] |
|  | INACTIVE | O=S(=O)(NCCCN1c2ccccc2CCc2ccc(Cl)cc21)c1ccc(Cl)cc1F [Example 28, N-(3-(3-chloro-10,11-dihydro-5H-dibenzo[b,f]azepin-5-yl)propyl)-4-chloro-2-fluorobenzenesulfonamide] |

same assay, conditions: Homo sapiens, NCI-H1650, 48 hours after drug treatment, MTT

| IC50 [µM] | SMILES |
| --- | --- |
| 20 | Cc1ccc(S(=O)(=O)NCCCN2c3ccccc3Sc3ccc(Cl)cc32)cc1 [Example 3, N-(3-(2-chloro-10H-phenothiazin-10-yl)propyl)-4-methylbenzenesulfonamide] |
| 10 | COC(=O)NCCCN1c2ccccc2Sc2ccc(Cl)cc21 [Example 4, Methyl (3-(2-chloro-10H-phenothiazin-10-yl)propyl)carbamate] |
| 20 | Cc1ccc(S(=O)(=O)NCCCN2c3ccccc3CCc3ccc(Cl)cc32)cc1 [Example 8, N-(3-(3-chloro-10,11-dihydro-5H-dibenzo[b,f]azepin-5-yl)propyl)-4-methylbenzenesulfonamide] |
| 20 | CN(C)C(=O)NCCCN1c2ccccc2CCc2ccc(Cl)cc21 [Example 10, 3-(3-(3-chloro-10,11-dihydro-5H-dibenzo[b,f]azepin-5-yl)propyl)-1,1-dimethylurea] |
| 18 | O=S(=O)(NCCCN1c2ccccc2Sc2ccc(Cl)cc21)c1cc(F)cc(F)c1 [Example 13] |
| 40 | N#Cc1ccc(S(=O)(=O)NCCCN2c3ccccc3Sc3ccc(Cl)cc32)cc1 [Example 14, N-(3-(2-chloro-10H-phenothiazin-10-yl)propyl)-4-cyanobenzenesulfonamide] |
| 20 | O=S(=O)(NCCCN1c2ccccc2Sc2ccc(Cl)cc21)c1ccc(Cl)cc1 [Example 15, 4-Chloro-N-(3-(2-chloro-10H-phenothiazin-10-yl)propyl)benzenesulfonamide] |
| > 50 | CN(C)C(=O)NCCCN1c2ccccc2Sc2ccc(Cl)cc21 [Example 17, 3-(3-(2-Chloro-10H-phenothiazin-10-yl)propyl)-1,1-dimethylurea] |
| > 40 | O=S(=O)(NCCCN1c2ccccc2CCc2ccc(Cl)cc21)c1ccc(F)cc1 [Example 20, N-(3-(3-chloro-10,11-dihydro-5H-dibenzo[b,f]azepin-5-yl)propyl)-4-fluorobenzenesulfonamide] |
| 15.3 | O=S(=O)(NCCCN1c2ccccc2CCc2ccc(Cl)cc21)c1ccc(C(F)(F)F)cc1 [Example 21, N-(3-(3-chloro-10,11-dihydro-5H-dibenzo[b,f]azepin-5-yl)propyl)-4-(trifluoromethyl)benzenesulfonamide] |
| 11.1 | N#Cc1ccc(S(=O)(=O)NCCCN2c3ccccc3CCc3ccc(Cl)cc32)cc1 [Example 22, N-(3-(3-chloro-10,11-dihydro-5H-dibenzo[b,f]azepin-5-yl)propyl)-4-cyanobenzenesulfonamide] |
| ~25 | O=S(=O)(NCCCN1c2ccccc2CCc2ccc(Cl)cc21)c1ccc(Cl)cc1 [Example 23, 4-Chloro-N-(3-(3-chloro-10,11-dihydro-5H-dibenzo[b,f]azepin-5-yl)propyl)benzenesulfonamide] |
| 15.1 | CS(=O)(=O)c1ccc(S(=O)(=O)NCCCN2c3ccccc3CCc3ccc(Cl)cc32)cc1 [Example 24, N-(3-(3-chloro-10,11-dihydro-5H-dibenzo[b,f]azepin-5-yl)propyl)-4-(methylsulfonyl)benzenesulfonamide] |
| < 40 | COc1ccc(S(=O)(=O)NCCCN2c3ccccc3CCc3ccc(Cl)cc32)cc1 [Example 25, N-(3-(3-chloro-10,11-dihydro-5H-dibenzo[b,f]azepin-5-yl)propyl)-4-methoxybenzenesulfonamide] |
| > 40 | O=S(=O)(NCCCN1c2ccccc2CCc2ccc(Cl)cc21)c1ccc(Cl)cc1Cl [Example 26, 2,4-dichloro-N-(3-(3-chloro-10,11-dihydro-5H-dibenzo[b,f]azepin-5-yl)propyl)benzenesulfonamide] |
| ~25 | O=S(=O)(NCCCN1c2ccccc2CCc2ccc(Cl)cc21)c1ccc(Cl)c(Cl)c1 [Example 29, 3,4-dichloro-N-(3-(3-chloro-10,11-dihydro-5H-dibenzo[b,f]azepin-5-yl)propyl)benzenesulfonamide] |
| ~20 | O=S(=O)(NCCN1c2ccccc2CCc2ccc(Cl)cc21)c1ccc(Cl)cc1 [Example 33, 4-chloro-N-(2-(3-chloro-10,11-dihydro-5H-dibenzo[b,f]azepin-5-yl)ethyl)benzenesulfonamide] |

| IC50 [µM] | SMILES |
| --- | --- |
| ~20 | O=S(=O)(NCCN1c2ccccc2CCc2ccc(Cl)cc21)c1ccc(C(F)(F)F)cc1 [Example 34, N-(2-(3-chloro-10,11-dihydro-5H-dibenzo[b,f]azepin-5-yl)ethyl)-4-(trifluoromethyl)benzenesulfonamide] |
| ~25 | O=S(=O)(NCCN1c2ccccc2CCc2ccc(Cl)cc21)c1ccc(OC(F)(F)F)cc1 [Example 37, N-(2-(3-chloro-10,11-dihydro-5H-dibenzo[b,f]azepin-5-yl)ethyl)-4-(trifluoromethoxy)benzenesulfonamide] |
| ~10 | O=S(=O)(NCCCN1c2ccccc2CCc2cc(Cl)ccc21)c1ccc(C(F)(F)F)cc1 [Example 38, N-(3-(2-chloro-10,11-dihydro-5H-dibenzo[b,f]azepin-5-yl)propyl)-4-(trifluoromethyl)benzenesulfonamide] |
| ~10 | O=S(=O)(NCCCN1c2ccccc2CCc2ccc(Cl)cc21)c1cccc(C(F)(F)F)c1 [Example 39, N-(3-(3-chloro-10,11-dihydro-5H-dibenzo[b,f]azepin-5-yl)propyl)-3-trifluoromethylbenzenesulfonamide] |
| ~15 | O=[N+]([O-])c1ccc(S(=O)(=O)NCCCN2c3ccccc3CCc3ccc(Cl)cc32)cc1 [Example 40, N-(3-(3-chloro-10,11-dihydro-5H-dibenzo[b,f]azepin-5-yl)propyl)-4-nitrobenzenesulfonamide] |
| ~25 | O=S(=O)(NCCN1c2ccccc2Sc2ccc(Cl)cc21)c1ccc(C(F)(F)F)cc1 [Example 41, 4-trifluoromethyl-N-(2-(2-chloro-10H-phenothiazin-10-yl)ethyl)benzenesulfonamide] |
| ~25 | O=S(=O)(NCCN1c2ccccc2Sc2ccc(Cl)cc21)c1ccc(OC(F)(F)F)cc1 [Example 42, 4-trifluoromethoxy-N-(2-(2-chloro-10H-phenothiazin-10-yl)ethyl)benzenesulfonamide] |
| ~35 | Nc1ccc2c(c1)N(CCCNS(=O)(=O)c1ccc(C(F)(F)F)cc1)c1ccccc1CC2 [Example 43, N-(3-(3-amino-10,11-dihydro-5H-dibenzo[b,f]azepin-5-yl)propyl)-4-(trifluoromethyl)benzenesulfonamide] |
| ~30 | [N-]=[N+]=Nc1ccc2c(c1)N(CCCNS(=O)(=O)c1ccc(C(F)(F)F)cc1)c1ccccc1CC2 [Example 44, N-(3-(3-azido-10,11-dihydro-5H-dibenzo[b,f]azepin-5-yl)propyl)-4-(trifluoromethyl)benzenesfulfonamide] |
| ~25 | O=S(=O)(NCCCN1c2ccccc2CCc2ccc(Cl)cc21)c1ccccc1 [Example 45, N-(3-(3-chloro-10,11-dihydro-5H-dibenzo[b,f]azepin-5-yl)propyl)benzenesulfonamide] |
| ~30 | O=S(=O)(NCCN1c2ccccc2Sc2ccccc21)c1ccc(OC(F)(F)F)cc1 [Example 46, N-(2-(10H-phenothiazin-10-yl)ethyl)-4-trifluoromethoxybenzenesulfonamide] |
| ~30 | O=S(=O)(NCCN1c2ccccc2Sc2ccccc21)c1ccc(Cl)cc1 [Example 47, N-(2-(10H-phenothiazin-10-yl)ethyl)-4-chlorobenzenesulfonamide] |
| ~15 | O=S(=O)(NCCC=C1c2ccccc2CCc2ccccc21)c1ccc(Cl)cc1 [Example 50, 4-Chloro-N-(3-(10,11-dihydro-5H-dibenzo[a,d][7]annulen-5-ylidene)propyl)benzenesulfonamide] |
| ~20 | O=S(=O)(NCCC=C1c2ccccc2CCc2ccccc21)c1ccc(OC(F)(F)F)cc1 [Example 51, N-(3-(10,11-dihydro-5H-dibenzo[a,d][7]annulen-5-ylidene)propyl)-4-(trifluoromethoxy)benzenesulfonamide] |
| ~10 | O=S(=O)(NCCCN1c2ccc(Cl)cc2CCc2cc(Cl)ccc21)c1ccc(Cl)cc1 [Example 52, 4-Chloro-N-(3-(2,8-dichloro-10,11-dihydro-5H-dibenzo[b,f]azepin-5-yl)propyl)benzenesulfonamide] |
| ~10 | O=S(=O)(NCCCN1c2ccc(Cl)cc2CCc2cc(Cl)ccc21)c1ccc(OC(F)(F)F)cc1 [Example 53, 4-Trifluoromethoxy-N-(3-(2,8-dichloro-10,11-dihydro-5H-dibenzo[b,f]azepin-5-yl)propyl)benzenesulfonamide] |

| SMILES | IC50 [µM] |
| --- | --- |
| NCCCN1c2ccccc2CCc2ccccc21 [Example 19, 3-(10,11-dihydro-5H-dibenzo[b,f]azepin-5-yl)propan-1-aminium chloride] | 24.4 |
| O=S(=O)(NCCCN1c2ccccc2CCc2ccccc21)c1ccc(Cl)cc1 [Example 35, 4-chloro-N-(3-(10,11-dihydro-5H-dibenzo[b,f]azepin-5-yl)propyl)benzenesulfonamide] | ~20 |
| O=S(=O)(NCCCN1c2ccccc2CCc2ccccc21)c1ccc(C(F)(F)F)cc1 [Example 36, N-(3-(10,11-dihydro-5H-dibenzo[b,f]azepin-5-yl)propyl)-4-(trifluoromethyl)benzenesulfonamide] | ~15 |

From US9540358B2, “Tricyclic compounds as anticancer agents” (ICAHN SCHOOL OF MEDICINE AT MOUNT SINAI, priority 2011, dated 2017)
